Structures can show the parent of a compound that is named as a salt.
How the values were obtained:
Test in all cases: Method 1: intracellular Ca2+ release (FLIPR, Calcium 5) in recombinant CHO-K1 cells
Assay type in all cases: cell-based
[1] = biological target: T1, human S1PR1 receptor (Homo sapiens, UniProt P21453); settings: (1): determined with method 1; read-out: S1P1 EC50
T1 construct: host or cells: CHO-K1
Procedure, shortened: (§1)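 For antagonist mode, compounds were pre-incubated 10 min before phospho-fingolimod at EC80; in agonist mode, compounds were added directly to Calcium 5-loaded CHO-K1 cells co-expressing Gq/i5. Fluorescence was measured on FLIPR, and EC50 was fitted relative to the phospho-fingolimod curve.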

[2] = biological target: T2, human S1PR5 receptor (Homo sapiens, UniProt Q9H228); settings: agonist potency, determined with method 1 (symbols A-D); read-out: S1P5 EC50 range
T2 construct: host or cells: CHO-K1
Procedure, shortened: as §1

[3] = biological target: T3, human S1PR4 receptor (Homo sapiens, UniProt O95977); settings: (1): determined with method 1; read-out: S1P4 EC50
T3 construct: host or cells: CHO-K1
T3 sequence (O95977 1-384): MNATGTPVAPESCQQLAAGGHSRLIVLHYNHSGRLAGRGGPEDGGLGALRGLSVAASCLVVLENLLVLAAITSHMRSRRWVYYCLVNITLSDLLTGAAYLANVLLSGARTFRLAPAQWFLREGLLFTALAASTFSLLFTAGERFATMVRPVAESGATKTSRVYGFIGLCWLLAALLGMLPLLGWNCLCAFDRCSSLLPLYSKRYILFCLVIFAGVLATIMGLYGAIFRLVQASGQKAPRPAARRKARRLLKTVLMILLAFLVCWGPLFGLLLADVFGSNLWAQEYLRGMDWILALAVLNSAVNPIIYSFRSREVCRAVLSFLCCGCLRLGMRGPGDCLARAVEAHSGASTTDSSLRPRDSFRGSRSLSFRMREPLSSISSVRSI
Procedure, shortened: as §1

[4] = biological target: T4, human S1PR3 receptor (Homo sapiens, UniProt Q99500); settings: (1): determined with method 1; read-out: S1P3 EC50
T4 construct: host or cells: CHO-K1
Procedure, shortened: as §1

T4 sequence (Q99500 whole entry): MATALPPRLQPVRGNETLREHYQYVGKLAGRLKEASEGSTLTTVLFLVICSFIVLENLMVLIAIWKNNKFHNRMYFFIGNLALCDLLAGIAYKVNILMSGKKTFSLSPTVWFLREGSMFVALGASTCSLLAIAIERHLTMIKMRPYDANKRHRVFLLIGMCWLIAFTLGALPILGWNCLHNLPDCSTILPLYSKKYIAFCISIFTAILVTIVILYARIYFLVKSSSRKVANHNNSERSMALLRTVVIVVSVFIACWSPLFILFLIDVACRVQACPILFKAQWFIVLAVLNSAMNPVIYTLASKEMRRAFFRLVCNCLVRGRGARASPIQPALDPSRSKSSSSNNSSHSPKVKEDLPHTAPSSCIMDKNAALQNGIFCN
T1 sequence (P21453 whole entry): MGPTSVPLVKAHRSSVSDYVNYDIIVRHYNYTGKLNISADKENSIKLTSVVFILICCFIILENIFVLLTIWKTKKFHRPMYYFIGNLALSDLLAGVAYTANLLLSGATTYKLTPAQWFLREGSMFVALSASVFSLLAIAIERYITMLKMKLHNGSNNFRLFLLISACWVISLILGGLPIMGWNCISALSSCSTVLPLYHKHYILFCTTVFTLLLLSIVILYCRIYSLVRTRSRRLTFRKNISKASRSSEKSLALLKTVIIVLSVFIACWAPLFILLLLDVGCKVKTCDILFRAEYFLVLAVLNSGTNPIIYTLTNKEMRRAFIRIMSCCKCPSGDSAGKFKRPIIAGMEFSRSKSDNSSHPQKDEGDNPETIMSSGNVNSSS
T2 sequence (Q9H228 whole entry): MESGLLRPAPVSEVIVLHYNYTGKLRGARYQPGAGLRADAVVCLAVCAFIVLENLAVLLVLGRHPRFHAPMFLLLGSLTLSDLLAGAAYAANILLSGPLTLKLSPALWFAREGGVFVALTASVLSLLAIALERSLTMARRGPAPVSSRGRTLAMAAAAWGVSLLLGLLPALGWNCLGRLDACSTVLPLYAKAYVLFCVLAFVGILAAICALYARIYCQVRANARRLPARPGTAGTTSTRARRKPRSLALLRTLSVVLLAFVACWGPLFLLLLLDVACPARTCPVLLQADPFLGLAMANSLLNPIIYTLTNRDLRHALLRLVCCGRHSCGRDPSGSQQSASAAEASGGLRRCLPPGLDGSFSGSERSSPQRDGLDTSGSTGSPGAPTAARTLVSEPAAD

Structure (SMILES)	EC50 [1] [nM]	EC50 [2] [nM]	EC50 [3] [nM]	EC50 [4] [nM]
O=C(O)CCCN1CCc2nc(Cc3ccccc3)ncc2C1 [Compound 50, 4-(2-benzyl-7,8-dihydropyrido[4,3-d]pyrimidin-6(5H)-yl)butanoic acid]	> 1000	1000 to 10000	> 1000	> 1000
O=C(O)CCN1CCc2nc(-c3ccc(OCc4cccc(F)c4)cc3F)ccc2C1 [Compound 145, 3-(2-(2-fluoro-4-((3-fluorobenzyl)oxy)phenyl)-7,8-dihydro-1,6-naphthyridin-6(5H)-yl)propanoic acid]	> 1000	10 to 100	> 1000	> 1000
CC(CCC(=O)O)N1CCc2nc(-c3ccc(OCc4cccc(Cl)c4)cc3)ncc2C1 (stereo not drawn) [Compound 65, 4-(2-(4-((3-chlorobenzyl)oxy)phenyl)-7,8-dihydropyrido[4,3-d]pyrimidin-6(5H)-yl)pentanoic acid]	> 1000	10 to 100	> 1000	> 1000
CCc1cccc(Cl)c1COc1ccc2c(n1)CCN(C1CC(C(=O)O)C1)C2 (stereo not drawn) [Compound 118, 3-(2-((2-chloro-6-ethylbenzyl)oxy)-7,8-dihydro-1,6-naphthyridin-6(5H)-yl)cyclobutanecarboxylic acid]	> 1000	< 10	> 1000	> 1000
CC(CC(=O)O)CN1CCc2nc(-c3ccc(OCc4ccccc4Cl)cc3F)ncc2C1 (stereo not drawn) [Compound 284, 4-[2-[4-[(2-chlorophenyl)methoxy]-2-fluoro-phenyl]-7,8-dihydro-5H-pyrido[4,3-d]pyrimidin-6-yl]-3-methyl-butanoic acid 2,2,2-trifluoroacetic acid salt]	> 1000	10 to 100	> 1000	> 1000
O=C(O)C1CC(N2CCc3nc(C#Cc4ccc(F)cc4)ccc3C2)C1 (stereo not drawn) [Compound 123, 3-(2-((4-fluorophenyl)ethynyl)-7,8-dihydro-1,6-naphthyridin-6(5H)-yl)cyclobutanecarboxylic acid]	> 1000	1000 to 10000	> 1000	> 1000
Cc1ccccc1COc1ccc(-c2ncc3c(n2)CCN(CC(C)CC(=O)O)C3)cc1 (stereo not drawn) [Compound 234, 3-methyl-4-[2-[4-(o-tolylmethoxy)phenyl]-7,8-dihydro-5H-pyrido[4,3-d]pyrimidin-6-yl]butanoic acid 2,2,2-trifluoroacetic acid salt]	< 1000	< 10	> 1000	> 1000
CC(CCN1CCc2nc(-c3ccc(OCc4ccccc4)cc3)c(F)cc2C1)C(=O)O (stereo not drawn) [Compound 180, 4-(2-(4-(benzyloxy)phenyl)-3-fluoro-7,8-dihydro-1,6-naphthyridin-6(5H)-yl)-2-methylbutanoic acid]	< 1000	< 10	> 1000	> 1000
O=C(O)CN1CCc2nc(-c3ccc(OCc4cccc(Cl)c4)cc3)ncc2C1 [Compound 32, 2-(2-(4-((3-chlorobenzyl)oxy)phenyl)-7,8-dihydropyrido[4,3-d]pyrimidin-6(5H)-yl)acetic acid]	> 1000	100 to 1000	> 1000	> 1000
CC(CC(=O)O)CN1CCc2nc(-c3ccc(OCc4c(F)cccc4F)cc3F)ncc2C1 (stereo not drawn) [Compound 240, 4-[2-[4-[(2,6-difluorophenyl)methoxy]-2-fluoro-phenyl]-7,8-dihydro-5H-pyrido[4,3-d]pyrimidin-6-yl]-3-methyl-butanoic acid 2,2,2-trifluoroacetic acid salt]	> 1000	< 10	> 1000	> 1000
O=C(O)C1(CN2CCc3nc(-c4ccc(OCc5cccc(Cl)c5)cc4)ncc3C2)CC1 [Compound 1, 1-((2-(4-((3-chlorobenzyl)oxy)phenyl)-7,8-dihydropyrido[4,3-d]pyrimidin-6(5H)-yl)methyl)cyclopropanecarboxylic acid]	> 1000	100 to 1000	> 1000	> 1000
CC(CCC(=O)O)N1CCc2nc(-c3ccc(Cc4ccccc4)cc3)ncc2C1 (stereo not drawn) [Compound 214, 4-(2-(4-benzylphenyl)-7,8-dihydropyrido[4,3-d]pyrimidin-6(5H)-yl)pentanoic acid]	> 1000	1000 to 10000	> 1000	> 1000
